# What was measured:
# Experiment in all cases: Growth inhibition on agar plates, crystalline material swabbed on
# Assay type in all cases: cell-based
# Escherichia coli = details: agar plate containing Escherichia coli
# Description: (§1) A chalky, white substance presumptively identified as monosodium urate monohydrate crystals was extracted from the subcutaneous area of an elbow of a patient presenting with a soft tissue gouty tophus at the elbow. […] The crystalline substance was swabbed onto agar plates containing Staphylococcus aureus, Staphylococcus pyogenes, Neisseria meningitis, Neisseria gonorrhorea, Escherichia coli, Methicillin resistant Staphylococcus aureus, Haemophilus influenza or Serratia Marcessens. The crystalline material inhibited the growth of the microorganisms as indicated below in Table 1.
# Neisseria meningitis = details: agar plate containing Neisseria meningitis
# Description: as §1
# Serratia Marcessens = details: agar plate containing Serratia Marcessens
# Description: as §1
# [1] = system: Methicillin resistant Staphylococcus aureus; details: agar plate containing Methicillin resistant Staphylococcus aureus
# Description: as §1
# Staphylococcus pyogenes = details: agar plate containing Staphylococcus pyogenes
# Description: as §1
# Neisseria gonorrhorea = details: agar plate containing Neisseria gonorrhorea
# Description: as §1
# Haemophilus influenza = details: agar plate containing Haemophilus influenza
# Description: as §1
# Staphylococcus aureus = system: Staphylococcus aureus
# Description: as §1
compound,measurement,setting,value
"O.O=c1[n-]c2c(=O)[nH]c(=O)[nH]c2[nH]1.[Na+] [Monosodium Urate Monohydrate, monosodium urate monohydrate]",Antimicrobial activity (growth inhibition),Escherichia coli,Did not inhibit growth
same,Antimicrobial activity (growth inhibition),Neisseria meningitis,Inhibited growth
same,Antimicrobial activity (growth inhibition),Serratia Marcessens,Did not inhibit growth
same,Antimicrobial activity (growth inhibition),[1],Did not inhibit growth
same,Antimicrobial activity (growth inhibition),Staphylococcus pyogenes,Inhibited growth
same,Antimicrobial activity (growth inhibition),Neisseria gonorrhorea,Inhibited growth
same,Antimicrobial activity (growth inhibition),Haemophilus influenza,Did not inhibit growth
same,bacteriocidal activity,Staphylococcus aureus; against S. aureus,exhibited bacteriocidal activity
same,Antimicrobial activity (growth inhibition),Staphylococcus aureus; agar plate containing Staphylococcus aureus,Inhibited growth

# From patent publication US7875620B2, “Methods of treating microbial infections” (Piper Medical, Inc., priority 2005, dated 2011)
